{"source": "patent US4992417A", "about": "(Mount Sinai School of Medicine, priority 1988, dated 1991)", "key": {"rat adipocytes": {"tested_on": "rat adipocytes", "assay": "Lipogenesis assay (conversion of [3-3H] glucose into lipids)", "format": "cell-based", "conditions": "isolated rat adipocytes", "description": "Adipocytes were prepared by incubating epididymal and perirenal fat pads obtained from male rats weighing 200-300 g with 1.0 mg/ml collagenase for 60 min at 37° C., followed by filtration through gauze and then through fine-mesh silk. Cells were washed twice by flotation in a clinical centrifuge before suspension for use. The incubation medium was Krebs-Ringer bicarbonate containing half the recommended calcium, 0.5 mM glucose, and 3% fatty acid free bovine serum albumin, with 95% O2 -5% CO2 as the gas phase. […] Cells were preincubated for 45 min at 37° C. before the addition of [3-^3 H] glucose. Incubation was continued for 60 min and stopped by the addition of 0.2 ml of 5N H2 SO4 and 0.2 ml of corn oil to aid in the extraction of lipids. Samples were extracted with 10 ml of Soluscint-0® for 30 min at room temperature before counting the radioactivity in a scintillation counter. Under these conditions, [3-^3 H] glucose was not extracted into the organic phase containing the scintillation fluors and was essentially uncounted.\nStimulation, expressed as per cent of maximum, was plotted as a function of the agonist concentration. The data points represent the mean of triplicate determinations in representative assays performed four times. […]\nStimulation, expressed as per cent of maximum, was plotted as a function of the agonist concentration. […]"}, "[1]": {"biological_target": "T1, insulin receptors in rat liver plasma membranes (Rattus norvegicus, UniProt P15127)", "T1 construct": "Rat liver plasma membranes were prepared as described by Horvat et al; from tissue; host or cells: rat liver plasma membranes", "T1 sequence (P15127 27-759 limits assumed)": "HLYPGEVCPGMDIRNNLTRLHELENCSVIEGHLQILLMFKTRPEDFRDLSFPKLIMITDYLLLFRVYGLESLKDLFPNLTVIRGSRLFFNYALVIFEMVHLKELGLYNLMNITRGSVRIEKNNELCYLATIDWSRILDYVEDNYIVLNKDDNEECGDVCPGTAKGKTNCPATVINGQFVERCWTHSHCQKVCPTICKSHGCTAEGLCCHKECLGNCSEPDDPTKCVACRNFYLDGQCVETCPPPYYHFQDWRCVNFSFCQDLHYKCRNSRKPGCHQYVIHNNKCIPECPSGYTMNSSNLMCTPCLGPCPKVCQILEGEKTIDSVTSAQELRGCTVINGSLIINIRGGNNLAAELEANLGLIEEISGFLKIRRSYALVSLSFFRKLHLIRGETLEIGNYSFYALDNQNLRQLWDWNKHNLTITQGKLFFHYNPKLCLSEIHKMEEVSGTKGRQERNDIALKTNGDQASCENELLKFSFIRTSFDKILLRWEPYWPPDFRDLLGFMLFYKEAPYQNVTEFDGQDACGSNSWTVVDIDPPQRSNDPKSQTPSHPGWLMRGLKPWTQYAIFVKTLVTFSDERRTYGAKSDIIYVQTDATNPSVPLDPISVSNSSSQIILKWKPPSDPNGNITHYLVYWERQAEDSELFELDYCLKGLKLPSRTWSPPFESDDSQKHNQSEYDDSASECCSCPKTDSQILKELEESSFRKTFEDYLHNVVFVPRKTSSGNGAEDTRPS", "assay": "Insulin receptor binding assay (competition with 125I-insulin)", "description": "Following incubation for 45 min at 24° C., the mixtures were diluted with 2.0 ml of ice cold 0.1M sodium phosphate, pH 7.4, containing 0.1% fraction V bovine serum albumin and immediately filtered through cellulose-acetate filters. The filters were washed twice with the ice cold buffer, dried, and then radioactivity was counted in a scintillation counter using Filtron-X®.\nInhibition of binding, expressed as per cent of maximum, was plotted as a function of competitor concentration. […] The maximum binding in these assays amounted to 8.2% of the input radioactivity.\nInhibition of binding, expressed as per cent of maximum, was plotted as a function of competitor concentration."}, "[2]": {"tested_on": "Guinea pig antiserum to porcine insulin", "assay": "Insulin radioimmunoassay", "format": "binding", "conditions": "competition with 125I-insulin for anti-insulin antiserum; ratio of slopes", "description": "After incubation at room temperature overnight, 0.2 ml of the precipitating antibody (goat anti-guinea pig-γ globulin) was added, and the tubes were further incubated overnight at room temperature. Immune precipitates were collected on cellulose-acetate filters and washed with two successive 1.0 mL portions of ice-cold assay buffer. Filters were dried and radioactivity was counted in a scintillation counter in Filtron-X®."}, "insulin receptor": {"biological_target": "insulin receptor (Homo sapiens, UniProt P06213)", "conditions": "cited from earlier work; for potency compared with natural insulin: literature"}}}
{"substance": "[10-Aspartic acid-B] human insulin", "values": [{"measurement": "maximum stimulation of lipogenesis compared with bovine insulin", "setting": "rat adipocytes", "result": "full agonist"}, {"measurement": "relative potency (concentration ratio required to produce 50% of the maximum stimulation of lipogenesis) relative to bovine insulin", "setting": "rat adipocytes; [3-3H] glucose, 60 min, assays performed four times", "result": "435±144", "unit": "%"}, {"measurement": "potency relative to bovine insulin (concentration ratio required to inhibit 50% of the specific binding of 125I-insulin)", "setting": "[1]; rat liver plasma membranes, 45 min at 24° C., pH 7.4, assay performed four times", "result": "about 534±146%"}, {"measurement": "binding to the insulin receptor, times more tightly than natural insulins", "setting": "[1]; relative to natural insulins", "result": "about five times more tightly"}, {"measurement": "potency in radioimmunoassay relative to bovine insulin", "setting": "[2]", "result": "approximately equal potency"}]}
{"substance": "[Asn^B10 ]- insulin", "values": [{"measurement": "potency compared with natural insulin", "setting": "insulin receptor", "result": "reduced potency"}]}
{"substance": "[Leu^B10 ]- insulin", "values": [{"measurement": "potency compared with natural insulin", "setting": "insulin receptor", "result": "reduced potency"}]}
{"substance": "[Lys^B10 ] insulin", "values": [{"measurement": "potency compared with natural insulin", "setting": "insulin receptor", "result": "reduced potency"}]}
{"substance": "des-pentapeptide(B26-B30)-[Phe^B25 -α-carboxamide]insulin", "values": [{"measurement": "potency compared with natural insulin", "setting": "insulin receptor", "result": "comparable potency"}]}
{"substance": "des-pentapeptide(B26-B30)-[Tyr^B25 -α-carboxamide]insulin", "values": [{"measurement": "potency greater than insulin", "setting": "insulin receptor; literature (Nakagawa et al.; Casareto et al.)", "result": "270-300%"}]}
